Source: BindingDB's records for doi:10.1074/jbc.M110.178376 (University of Pavia, 2011)
Counter-ions that a name gives are not always drawn.

Target: Beta-2-microglobulin (Homo sapiens, UniProt P61769)
Test: Fluorescence Assay
Settings: pH 7.4; 37 °C
Excerpt: Inhibition of wild type beta-m fibrillogenesis tetracycline congeners and was follow by thioflavin fluorescence assay.

Chain of Beta-2-microglobulin (P61769 whole entry): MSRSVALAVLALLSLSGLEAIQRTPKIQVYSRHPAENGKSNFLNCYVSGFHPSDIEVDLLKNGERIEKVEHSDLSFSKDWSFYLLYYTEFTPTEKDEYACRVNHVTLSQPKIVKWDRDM

## CN(C)[C@H]1C(=O)C(C(N)=O)C(=O)[C@@]2(O)C(=O)C3C(=O)c4c(O)cccc4[C@@](C)(O)C3C(O)C12 (stereo partly drawn) [4-epi-oxytetracycline]
  IC50: 49 µM

## CN(C)[C@@H]1C(=O)C(C(N)=O)C(=O)[C@@]2(O)C(=O)C3C(=O)c4c(O)cccc4[C@@](C)(O)[C@H]3[C@H](O)[C@@H]12 (stereo partly drawn) [(2E,4S,4aR,5S,5aR,6S,12aS)-2-[azanyl(oxidanyl)methylidene]-4-(dimethylamino)-6-methyl-5,6,10,11,12a-pentakis(oxidanyl)-4,4a,5,5a-tetrahydrotetracene-1,3,12-trione]
  IC50: 63 µM

## C=C1c2c(Cl)ccc(O)c2C(=O)C2C(=O)[C@]3(O)C(=O)C(C(N)=O)C(=O)[C@@H](N(C)C)[C@@H]3[C@@H](O)[C@H]12 (some centres not stated) [Meclocycline]
  IC50: 98 µM

## C=C1c2cccc(O)c2C(=O)C2C(=O)[C@]3(O)C(=O)C(C(N)=O)C(=O)[C@@H](N(C)C)[C@@H]3[C@@H](O)[C@H]12 (stereo partly drawn) [(4S,4aR,5S,5aS,12aS)-4-(dimethylamino)-5,10,12a-trihydroxy-1,3,11,12-tetraketo-6-methylene-4a,5,5a,11a-tetrahydro-4H-tetracene-2-carboxamide;hydrochloride]
  IC50: 69 µM

## Cc1c2c(c(O)c3c(O)ccc(Cl)c13)C(=O)[C@]1(O)C(=O)C(C(N)=O)C(=O)[C@@H](N(C)C)[C@@H]1C2 (some centres not stated) [Anhydrochlortetracycline]
  IC50: 136 µM

## CN(C)[C@@H]1C(=O)C(C(=O)NCN2CCCC2)C(=O)[C@@]2(O)C(=O)C3C(=O)c4c(O)cccc4[C@@](C)(O)[C@H]3C[C@@H]12 (some centres not stated) [Rolitetracycline]
  IC50: 136 µM

## C[C@H]1c2cccc(O)c2C(=O)C2C(=O)[C@]3(O)C(=O)C(C(N)=O)C(=O)[C@@H](N(C)C)[C@@H]3[C@@H](O)[C@@H]21 (some centres not stated)
  IC50: 47 µM
